Where “and” joins values, the source holds several entries; their conditions need not be identical. Identical values can stand only once. Like-named read-outs stand apart in the source and are kept apart here.
Assays:
[1] = test system: NMDAR in primary rat hippocampal neurons; format: cell-based, rat (Sprague-Dawley)
GluN2A subunit = conditions: ref [41], cited from earlier work

| SMILES | inhibition of iCa^2+ influx [1] | NMDAR subunit specificity (GluN2A subunit; 60 nM) | NMDAR subunit specificity (GluN2A subunit; 400 nM) |
| --- | --- | --- | --- |
| CC(C(O)c1ccc(O)cc1)N1CCC(Cc2ccccc2)CC1 (stereo not shown) [ifenprodil] | 64% | – | – |
| C[C@H](NC(c1cccc2[nH]c(=O)c(=O)[nH]c12)P(=O)(O)O)c1ccc(Br)cc1 (stereo partly shown) [NVP-AAM007] | 46% and 64% | specifically inhibits the GluN2A subunit | non-subunit specific |
